In patent EP4473972A1, “COMBINATIONS COMPRISING AN ATR INHIBITOR WITH SYNERGISTIC EFFECT AGAINST GLIOMAS” (Eberhard-Karls-Universität Tübingen, priority 2023, dated 2024):

Assays:
LN229-GFP cells = assay: Zebrafish embryo xenotransplant, tumor area; assay type: in vivo, wildtype zebrafish embryos; conditions: monotherapy, 48 h of treatment; not significant as compared to the DMSO control
Method: The inventors used zebrafish wildtype (wt) TE embryos younger than 5 days post-fertilization (dpf). […] Labelled cells were suspended in PBS at 2*10^5 cells/µL and approx. 1 nL cell suspension was injected into the midbrain region of 24 hpf embryos. The inventors incubated the embryos at 28°C for 1 h and afterwards divided them into treatment groups. Only successfully transplanted embryos were used for further experiments. Then, the inventors applied the treatments as indicated in the respective figures and incubated that for 48 h at 35°C. For evaluation of tumor size, they imaged embryos on a Nikon Stereomicroscope (SMZ18) with the NIS Element software. The inventors assessed the tumor surface areas using Imaris (version 9.2.0).

SMA560 glioma cells = assay: Syngeneic glioma mouse model (survival); assay type: in vivo, VM/Dk mice; conditions: 50 mg/kg bodyweight via oral gavage, five days on, two days treatment holiday; survival = time until the onset of neurological symptoms; vehicle control 14 days
Source text: All animal experiments were approved by the regional council Tübingen and conducted in accordance with animal law. Animals used in this study are kept and bred in the animal facility of the institute. They are regularly analyzed for infectious diseases. The inventors injected 5000 SMA560 glioma cells into the right striatum of VM/Dk mice (male and female). On day 5 post surgery, they randomized mice into treatment and control arm. The inventors administered AZD6738 (celasertib, Selleckchem, Houston, TX, US) at 50 mg/kg bodyweight or vehicle control via oral gavage for five days followed by two days of treatment holiday. Animals were closely monitored as shown in the scoring sheets. The endpoint of the experiment was according to the animal law "the time until the onset of neurological symptoms", in the text designated as "survival".

[1] = tested on: patient-derived glioblastoma microtumor models (PDM); assay: Patient derived microtumors (PDM) viability, RealTime-Glo MT Cell Viability Assay; assay type: cell-based; conditions: patient-derived microtumors (PDMs), 72 h
Method: PDMs were extracted from surgically resected, residual glioblastoma tissue as is known to the skilled person. The inventors treated the PDMs with indicated drug concentrations for 72 h and determined cell viability using RealTime-Glo MT Cell Viability Assay (Promega, Madison, Wl, US). Luminescence assay signal was measured using a multimode microplate reader (Tecan, Männedorf, Switzerland). Obtained luminescence units were background corrected and plotted as dose response curves using GraphPad Prism 9 software. The use of residual tissue after tumor resections was approved by the ethical board of the University Hospital Tübingen.

LNZ308 cells [2] = assay: Cell cycle analysis (propidium iodide flow cytometry); assay type: cell-based, human; conditions: LNZ308, 72 h
Method: (§1) The inventors seeded the cells on day one and treated them on the next day. After 72 h, they detached the cells and stained them with propidium iodide solution (50 µg/mL propidium iodide (Thermo Fisher Scientific, Waltham, MA, US), 0.2% Triton X-100 (Roth, Karlsruhe, Germany), 100 µg RNase (Thermo Fisher Scientific, Waltham, MA, US), 1 g/L glucose in PBS (phosphate buffered saline) (Gibco, Carlsbad, CA, US). Flow cytometry was done using a MACSQuant Analyzer 10 (Miltenyi Biotec, Bergisch Gladbach, Germany). The inventors analyzed the acquired data with the FlowJo software (Beckton, Dickinson & Company, Franklin Lakes, NJ, US).

LN229 cells [3] = assay: as above; assay type: cell-based, human; conditions: LN229, 72 h
Method: as §1

[4] = tested on: primary cultures (TUE-PC1-6); assay: Viability of patient-derived primary cultures; assay type: cell-based; conditions: six primary cultures (TUE-PC1-6), 72 h
Source text: Primary tumor tissue was obtained from fresh residual material upon resection at the Department of Neurosurgery, University Hospital Tübingen. The inventors cut the tissue in small pieces, washed it using Hanks Balanced Salt Solution (HBSS) (Gibco, Carlsbad, CA, US) and digested it by collagenase and dispase (Roche, Basel, CH). To remove any remaining erythrocytes, they used red blood cell lysis buffer (Sigma Aldrich, St. Louis, MO, US). The inventors then cultured the cells as GS cells in Neurobasal®-A medium. They first evaluated AZD6738 sensitivity of each primary culture and selected two concentrations. […] To evaluate combination treatment analyses, the inventors leveraged the Bliss independence Criterion.
The inventors seeded 5,000 or 10,000 cells, respectively, on day one, treated the next day in serum-free medium and incubated for up to 72 h. Subsequently, they measured cell viability using CellTiterBlue reagent (Promega, Madison, WI, US) according to manufacturer's instructions with a GloMax (Promega, Madison, Wl, US). The inventors normalized measurements to untreated cells.

[5] = after continuous dosing; cited from earlier work
GL261 cells = assay: Cell cycle analysis (propidium iodide flow cytometry); assay type: cell-based, murine; conditions: 72 h
Method: as §1

LNZ308 cells [6] = assay: Clonogenic survival assay; assay type: cell-based, human; conditions: treated 24 h in serum-free medium
Method: (§2) Cells were seeded the day before treatment. The inventors treated the cells in the indicated concentrations in serum-free medium for 24 h after which they changed the medium back to medium containing FCS, followed by a 7 to 21 day incubation time. The inventors used crystal violet (0.5% w/v) to stain colonies and analyzed the area coverage using the ImageJ software Plugln ColonyArea. Measurements were normalized to respective vehicle control wells.

LN229 cells [7] = assay: Clonogenic survival assay; assay type: cell-based, human; conditions: treated 24 h in serum-free medium
Method: as §2

Structure (SMILES): C[C@@H]1COCCN1c1cc(C2([S@](C)(=N)=O)CC2)nc(-c2cc[nH]c3nccc2-3)n1 [AZD6738, ceralasertib]
- tumor area (LN229-GFP cells): modest decrease
- median survival (SMA560 glioma cells): 21 days
- cell viability [1]: dose-dependent reduction
- cell cycle alterations (LNZ308 cells [2]): accumulation of LNZ308 cells in G2-M phase
- cell cycle alterations (LN229 cells [3]): accumulation in S phase
- cell viability [4]: dose-dependent reduction
- adverse events [5]: bone marrow suppression
- cell cycle alterations (GL261 cells): accumulation in S phase
- clonogenic survival (LNZ308 cells [6]): dose-dependent reduction
- clonogenic survival (LN229 cells [7]): dose-dependent reduction
